Test results from patent US7354911B2, “1,3-benzodioxol compound and use of same” (Sumitomo Chemical Company, Limited, priority 2006, dated 2008).

Tested on: Musca domestica
Experiment: Topical application of acetone solution to female adult Musca domestica, mortality after 24 hours
Assay type: in vivo
Details: 0.5 μL acetone solution on back of chest region, 25° C.
Method: After mixing the present compounds (1), (2), (3), (4), (5), and (6) with d-allethrin respectively, acetone solutions containing each mixture with the respective prescribed concentrations (w/v) listed in Table 2 were prepared. An adult Musca domestica was applied with 0.5 μL of the acetone solution dropped on the back side of its chest region, transferred to a plastic cup having about 9 cm diameter and about 4.5 cm height, and then left at 25° C. with being fed by 5% of aqueous sugar solution. […] The number of the Musca domesticas contained in each cup was 10, and the test was repeated twice.
Furthermore, after preparing acetone solutions containing each of the present compounds (1), (2), (3), (4), (5), and (6) and d-allethrin in the respective prescribed concentrations (w/v) listed in Table 2, a test was conducted as the same manner mentioned above.
For comparison, with using 4,5-methylenedioxy-2-propylphenyl2-butoxyethyl ether (hereinafter, referred to as a comparative compound)
[drawing 16] in place of the present compounds, a test was conducted in the same manner.

[1] = test compound 1.25 % (w/v) alone, d-allethrin 0 % (w/v)
[2] = test compound 1.25 % (w/v) mixed with d-allethrin 0.25 % (w/v)

| SMILES | mortality ratio [1] [%] | mortality ratio [2] [%] | mortality ratio (d-allethrin 0.25 % (w/v) alone, no test compound) [%] |
| --- | --- | --- | --- |
| CCCCOCCOc1cc2c(cc1CCC)OCO2 [Comparative compound, 4,5-methylenedioxy-2-propylphenyl2-butoxyethyl ether, reference compound] | 0 | 55 | – |
| C=CCc1cc2c(cc1OCCOC)OCO2 [The present compound (1), 5-(2-methoxyethoxy)-6-(2-propenyl)-1,3-benzodioxol] | 0 | 100 | – |
| CCCc1cc2c(cc1OCCOC)OCO2 [The present compound (2), 5-(2-methoxyethoxy)-6-propyl-1,3-benzodioxol] | 0 | 90 | – |
| C=CCc1cc2c(cc1OCCOCC)OCO2 [The present compound (3), 5-(2-ethoxyethoxy)-6-(2-propenyl)-1,3-benzodioxol] | 0 | 100 | – |
| CCCc1cc2c(cc1OCCOCC)OCO2 [The present compound (4), 5-(2-ethoxyethoxy)-6-propyl-1,3-benzodioxol] | 0 | 100 | – |
| C=CCc1cc2c(cc1OCCOCCC)OCO2 [The present compound (5), 5-{2-(propyloxy)ethoxy}-6-(2-propenyl)-1,3-benzodioxol] | 0 | 90 | – |
| CCCOCCOc1cc2c(cc1CCC)OCO2 [The present compound (6), 5-{(2-propyloxy)ethoxy}-6-propyl-1,3-benzodioxol] | 0 | 80 | – |
| C=CCC1=C(C)C(OC(=O)C2C(C=C(C)C)C2(C)C)CC1=O (stereo not drawn) [d-allethrin, reference compound] | – | – | 0 |
